{"source": "patent US9962403B2", "about": "“Formulation drug of sodium ion and calcium ion for treating cancer, tumor and nonmalignancy” (priority 2011, dated 2018)", "key": {"[1]": {"conditions": "for toxicity of high concentration solutions injected intramuscularly: paralysis of legs, cardiovascular and pulmonary failure, death", "description": "First, potential roles of Na^+, K^+, Ca^2+ and Mg^2+ in treatment of tumor and cancer were tested. In vivo experiments in BALB/c mice were performed. High concentration solutions of Na^+, K^+, Ca^2+ and Mg^2+ were injected intramuscularly. […] Experiments were focused on high concentrations of Na^+ and Ca^2+ solutions.\nAt the beginning, in vivo toxicity of high concentrations of Na^+, Ca^2+, K^+, and Mg^2+ in BALB/c mice was examined.\nBALB/c mice were housed and inbreeded in the contracted university animal facilities that was in accordance with the NIH regulation. Body weight of the BALB/c mice at the experiment was 30±g. The toxicity test was performed using intramuscular injection with 0.2ml of 35% NaCl, 35% CaCl2, 34% KCl or 35% MgCl2 in a mouse, respectively.\nIn total, 20 BALB/c mice (10 males and 10 females) were randomly divided into 5 groups, with 4 mice in each group."}, "[2]": {"system": "MCA207 mouse sarcoma, MC38 mouse colorectal cancer and B16F1 mouse melanoma", "conditions": "for average necrosis of all treated tumors: 48 hours; for occurrence of tumor necrosis: high concentrations, evaluated 24, 48 and 72 hours after treatment", "quoted_text": "Three animal tumor models of MCA207 mouse sarcoma, MC38 mouse colorectal cancer and B16F1 mouse melanoma were established in C57BL6 mice. The treatment of intratumoral injection started when tumors reached 8mm×8mm in size.\nThirty-six C57BL6 tumor mice were randomly divided into three groups according to tumor types (12 animals in each group). Then, animals in each group were further divided into 4 subgroups (3 tumor mice in each subgroup). Tumor animals in subgroup-1, as the control, were treated by intratumoral injection with 0.1ml of normal saline. Tumor animals in subgroup-2 were treated by intratumoral injection with 0.1ml of various concentrations of sodium chloride solution.\nTwenty-four, 48 and 72 hours after treatment, experimental results were evaluated by measuring the dimension of necrotic area of the treated tumors using a ruler."}, "multiple glomus tumors": {"system": "multiple glomus tumors", "conditions": "23.4% solution; 4 sessions of intralumenal injection in 6 months; one patient; cited from earlier work"}, "[3]": {"system": "MCF7 human breast cancer cells", "assay": "Fluorescent labeled Na+/Ca2+ probe technique, influx and death of cancer cells", "type": "cell-based", "source_text": "Fluorescent labeled ion probe technique was used in study of the influx of Na^+ and Ca^2+ from the extracellular fluid into intracellular fluid of cancer cells."}, "liver tumor": {"system": "liver tumor", "conditions": "36.5% hypertonic saline; cited from earlier work"}, "[4]": {"system": "18 types of human cancer cell lines", "assay": "Ex vivo killing test in tissue culture (Trypan blue exclusion or flow cytometry)", "type": "cell-based", "description": "Tumor cells were cultured in DMEM or RPMI1640 medium supplemented with 10% fetal bovine serum (FCS). The medium in the control group was free of the “medicinal ion bomb” solution. […] Mortality of cancer cells was evaluated by Trypan blue exclusion test or flow cytometry.\nThe role of the “medicinal ion bomb” in killing cancer cells was tested in tissue culture. Cancer cells were seeded in Petri dish using DMEM or RPMI1640 medium supplemented with 10% FCS. Each type of cancer cell line was prepared at 2×10^6 cells/ml in a 5ml plastic tube. […] Three to five minutes later, 0.5% Trypan Blue was added and mixed with the cell suspension for 2 minutes. The number of dead cancer cells was counted under an inverted microscope. Selected samples of treated cancer cell suspension for flow cytometer were prepared in phosphate-buffered saline (PBS) and mortality of cells was assayed using flow cytometer (Beckman Coulter Inc., CA)."}, "tumors": {"system": "tumors", "assay": "Earlier intratumoral injection of arsenic", "type": "in vivo, mice", "source_text": "An occasional opportunity sparked this invention. […] One day, the inventor went shopping in a Chinese supermarket and bought a dozen salted duck eggs. On the way back home, […] wondered why these salted duck eggs could be preserved at room temperature for years without rotting. The answer is that proteins and yolks in salted duck eggs are coagulated or clotted by high concentration of salt (sodium chloride), in particular by high concentration of sodium ions. The inventor linked this phenomenon to cell biology, cell physiology, membrane potential, ion science and cancer treatment, and presumed that high concentrations of sodium chloride might coagulate or clot proteins in cancer cells like what occurs in salted duck eggs."}, "[5]": {"conditions": "0.2ml of 35% NaCl, 35% CaCl2, 34% KCl or 35% MgCl2, mouse 30 g"}}, "note": "Like-named read-outs stand apart in the source and are kept apart here."}
{"smiles": "[Cl-].[Na+]", "note": "[sodium chloride solution, sodium chloride]", "values": [{"measurement": "outcome of animals after intramuscular injection", "setting": "[1]; [5]", "result": "survived the experiment"}, {"measurement": "average necrosis of all treated tumors", "setting": "[2]; 3.0 M solution", "result": "30%±10"}, {"measurement": "minimal effective treatment concentration", "setting": "[2]; Na+ alone or in combination, intratumoral injection, room temperature, listed as Na^+ solution", "result": 2.0, "unit": "M"}, {"measurement": "occurrence of tumor necrosis", "setting": "[2]", "result": "necrosis occurred in all tumors"}, {"measurement": "average necrosis of all treated tumors", "setting": "[2]; single intratumoral injection 0.1 mL of 5.0479 M solution", "result": "90%± 5"}, {"measurement": "average necrosis of all treated tumors", "setting": "[2]; single intratumoral injection 0.1 mL of 5.0479 M solution, listed as Na^+ solution", "result": "90%±5"}, {"measurement": "treatment outcome", "setting": "multiple glomus tumors", "result": "did not result in successful treatment"}, {"measurement": "time to kill MCF7 cells", "setting": "[3]; 5.0479 M of Na+ solution alone", "result": "20 ± 4", "unit": "s"}, {"measurement": "treatment outcome", "setting": "liver tumor", "result": "none of the tumors were successfully treated"}]}
{"smiles": "[Ca+2].[Cl-].[Cl-]", "note": "[calcium chloride solution, calcium chloride]", "values": [{"measurement": "outcome of animals after intramuscular injection", "setting": "[1]; 0.2ml of 17.5% CaCl2", "result": "survived the experiment"}, {"measurement": "outcome of animals after intramuscular injection", "setting": "[1]; [5]", "result": "died in 3 hours after treatment"}, {"measurement": "maximal effective treatment concentration", "setting": "[2]; Ca2+ alone or in combination, intratumoral injection, room temperature", "result": 6.0, "unit": "M"}, {"measurement": "local toxicity at the injection site", "setting": "[2]; high concentration of calcium chloride solution", "result": "toxic that causes unhealed wound at the injection site"}, {"measurement": "occurrence of tumor necrosis", "setting": "[2]", "result": "necrosis occurred in all tumors"}, {"measurement": "necrosis of treated tumors", "setting": "[2]; single intratumoral injection 0.1 ml of 250 mM, 1.0 M, 1.5 M, 2.0 M and 3.0 M, 48 hours posttreatment", "result": "coagulating necrosis of all treated tumors"}, {"measurement": "effect of tissue culture medium containing 250 mM of Ca2+", "setting": "[4]", "result": "induced sickness, apoptosis and death"}, {"measurement": "effect of Ca2+ solutions on cancer cells", "setting": "[3]; 250 mM, 1.0 M, 1.5 M, 2.0 M and 3.0 M, Ca2+ probe fluorescence microscopy", "result": "immediate sickness or death of cancer cells"}]}
{"smiles": "[Cl-].[K+]", "note": "[KCl]", "values": [{"measurement": "outcome of animals after intramuscular injection", "setting": "[1]; [5]", "result": "died from cardiopulmonary failure 3 hours after treatment"}, {"measurement": "toxicity of high concentration solutions injected intramuscularly", "setting": "[1]", "result": "toxic"}]}
{"smiles": "[AsH3]", "note": "[arsenic]", "values": [{"measurement": "treatment outcome", "setting": "tumors", "result": "did not work well"}]}
{"smiles": "[Cl-].[Cl-].[Mg+2]", "note": "[MgCl2]", "values": [{"measurement": "outcome of animals after intramuscular injection", "setting": "[1]; mouse, in vivo", "result": "not well absorbed"}, {"measurement": "toxicity of high concentration solutions injected intramuscularly", "setting": "[1]", "result": "toxic"}]}
